Experiments:
human GYS1 = human GYS1 (Homo sapiens (Human), UniProt P13807); test: GYS1 coupled enzyme assay (PK/LDH); format: biochemical; details: recombinant hGYS1/GN1 protein; geometric mean of at least 2 assay runs
Source text: The GYS1 coupled enzyme assay is a kinetic biochemical assay that indirectly quantifies the rate of glycogen synthesis by coupling the conversion of GYS1 substrate UDP-glucose into UDP with downstream enzymatic reactions. UDP is released from UDP-glucose as glucose monomers are linked into the growing glycogen strand by GYS1. The coupled assay then proceeds with pyruvate kinase utilizing UDP and phospho (enol) pyruvate (PEP) to form pyruvate. Lactate dehydrogenase then converts pyruvate and NADH into lactate and NAD+. Oxidation of NADH to NAD+ can be measured continuously with a plate reader by quantifying the decrease in NADH absorbance at 340 nm over time.
Compounds that inhibit the hGYS1 enzyme and, subsequently, the downstream conversion of NADH to NAD+, were tested using assay ready plates (black, clear bottom 384 well plates) in a final DMSO reaction volume of 2.5% DMSO. The Assay Buffer contained 50 mM Tris pH 7.5, 2 mM MgCl2, and 100 mM KCl. Fresh stocks of BSA at a final concentration of 0.02% and TCEP at 1 mM were added before splitting buffer into hGYS1 buffer and substrate buffer. To the hGYS1 buffer, rabbit liver glycogen was added at a final concentration of 0.2% glycogen. Glucose-6-Phosphate was added at 1 mM, recombinant hGYS1/GN1 protein was added at 50 nM to the substrate buffer, phosphoenolpyruvate (PEP) was added at 2 mM, UDP-Glucose was added at 0.8 mM, NADH) was added at 0.6 mM, and Pyruvate Kinase/Lactate Dehydrogenase was added at 20 units/mL. The reaction was initiated by mixing hGYS1 buffer and substrate buffer at a 1:1 ratio. Both buffers were plated using a liquid dispensing device with hGYS1 buffer plated first followed by the substrate buffer. Plates were spun briefly to eliminate air bubbles and are immediately read in continuous mode at an absorbance of 340 nm, for 10 time points in one-minute increments, for a total of 10 minutes. The slope from these 10 time points was normalized to the positive and negative control wells.
(§1) Unless otherwise specified, IC50 values are reported as the geometric mean of at least 2 assay runs on separate days. Each run represents the average of a technical replicate, where each compound was assayed twice in the same plate.

[1] = molecular target: hGYS1 enzyme, glycogen synthesis in HeLa cells (Homo sapiens (Human), UniProt P13807); test: GYS1 cell based assay (glycogen synthesis in HeLa cells, Glucose-glo); details: starved HeLa cells, 24 h incubation; geometric mean of at least 2 assay runs; read-out: Cellular IC50
Source text: The GYS1 cell based assay is a bioluminescent assay that quantifies the glucose resulting from glycogen digestion; the quantified glucose is an indirect measure of GYS1 glycogen synthesis. Newly synthesized glycogen is digested using Glucoamylase; the resulting glucose is quantified by using the Glucose-glo assay kit from Promega. Glucose-glo works by coupling glucose oxidation and NADH production with a bioluminescent system that is activated with NADH. Glucose is oxidized by Glucose dehydrogenase and the reaction reduces NAD+ to NADH; NADH activates Reductase which reduces a pro-luciferin Reductase Substrate to luciferin. Luciferin is detected in a luciferase reaction using Ultra-Glo rLuciferase and ATP, and the luminesce produced is proportional to the glucose in the sample. The luminescence is measured as a single point read in a plate reader.
Compounds that inhibit the hGYS1 enzyme and, subsequently, the glycogen synthesis in cells, were tested using assay ready plates (white, clear bottom 384 well plates) in a final DMSO reaction volume of 1% DMSO. Compounds in the assay ready plates were mixed with media with no additives, except for 20 mM glucose prior to cell addition. HeLa cells were starved in media with no additives, except for 1× Glutamax for 24 h. Starved HeLa cells were plated, in a 1:1 ratio to the media in the assay ready plate and incubated for 24 h at 37° C. and 5% CO2. Cells were washed in 1×PBS buffer and lysed in lysis buffer containing 50% 1×PBS and 25% 0.3 N HCl of the final volume in the well or reaction volume; cells were incubated with lysis buffer for 10 minutes and quenched with the remaining 25% of the reaction volume that consisted of 450 mM Tris pH 8.0. Lysates were mixed in a 1:1 ratio with Glucoamylase in 100 mM Sodium Acetate buffer, pH 5.3; the mixture was incubated for 1 h at 37° C. The digested lysate was mixed in a 1:1 ratio with Glucose-glo detection mixture as per vendor recommendations (Luciferase detection buffer, Reductase, Reductase substrate, Glucose dehydrogenase, and NAD) in read-out plates (solid white 384-well plates) and incubated for 1 h at RT. The plates were read using a plate reader with luminescence capabilities. Each compound concentration Relative Luminescence Unit (RLU) was averaged and normalized to the average RLU of the positive and negative controls to obtain a percentage inhibition. The normalized data vs. concentration was plotted; to determine the half-maximal concentration (IC50), the Levenberg-Marquardt algorithm was used to fit a Hill equation to the dose response data.
as §1, with “2 assay runs on separate days. […] Unless otherwise specified, IC50 values are reported as the geometric mean of at least two” for “2”

human GYS1, sequence (P13807 whole entry): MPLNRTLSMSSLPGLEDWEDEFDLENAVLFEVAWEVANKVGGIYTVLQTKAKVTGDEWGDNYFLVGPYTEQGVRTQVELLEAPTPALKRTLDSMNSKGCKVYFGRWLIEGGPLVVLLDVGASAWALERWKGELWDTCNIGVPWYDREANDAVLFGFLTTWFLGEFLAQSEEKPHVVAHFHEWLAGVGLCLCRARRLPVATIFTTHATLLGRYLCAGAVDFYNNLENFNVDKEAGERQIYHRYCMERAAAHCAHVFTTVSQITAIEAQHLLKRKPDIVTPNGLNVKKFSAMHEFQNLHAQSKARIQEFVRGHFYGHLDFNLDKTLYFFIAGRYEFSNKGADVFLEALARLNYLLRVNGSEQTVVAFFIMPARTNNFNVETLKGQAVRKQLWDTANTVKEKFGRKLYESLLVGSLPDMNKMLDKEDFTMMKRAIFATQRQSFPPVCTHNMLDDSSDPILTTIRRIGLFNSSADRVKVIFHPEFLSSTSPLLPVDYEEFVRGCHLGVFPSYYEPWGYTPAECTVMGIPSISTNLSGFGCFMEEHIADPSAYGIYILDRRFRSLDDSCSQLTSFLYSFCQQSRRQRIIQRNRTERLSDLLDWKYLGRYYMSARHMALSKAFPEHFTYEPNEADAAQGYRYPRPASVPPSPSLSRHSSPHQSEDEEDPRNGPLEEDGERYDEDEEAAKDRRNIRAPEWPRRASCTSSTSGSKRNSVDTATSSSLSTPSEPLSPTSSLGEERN
human GYS1, sequence (P46976 whole entry partner): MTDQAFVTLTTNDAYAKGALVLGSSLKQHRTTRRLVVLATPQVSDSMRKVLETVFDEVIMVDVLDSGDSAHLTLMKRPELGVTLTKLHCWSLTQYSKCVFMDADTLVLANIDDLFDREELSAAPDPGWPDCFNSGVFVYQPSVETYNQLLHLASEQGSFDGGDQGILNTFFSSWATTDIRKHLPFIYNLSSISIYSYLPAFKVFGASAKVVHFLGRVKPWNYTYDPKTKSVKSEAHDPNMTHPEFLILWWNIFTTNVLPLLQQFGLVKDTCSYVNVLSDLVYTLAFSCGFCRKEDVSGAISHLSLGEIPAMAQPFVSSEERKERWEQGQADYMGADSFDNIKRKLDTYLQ
hGYS1 enzyme, glycogen synthesis in HeLa cells, sequence (P13807 whole entry): as the sequence (P13807 whole entry) above

Structure (SMILES) | IC50 (human GYS1) | IC50 [1]
O=C(O)[C@H]1CCC[C@H]1C(=O)N[C@@H](c1ccccc1)c1ccc(C2CC2)c(F)n1 [Compound 6, (1S,2R)-2-(((S)-(5-cyclopropyl-6-fluoropyridin-2-yl)(phenyl)methyl)carbamoyl)cyclopentane-1-carboxylic acid] | 0.272 µM | –
CC(C)c1ccc([C@@H](NC(=O)C2CC(O)CC2C(=O)O)c2ccccc2)cc1 (single isomer, unassigned) [Compound 16, (1S or 1R,2R or 2S,4R or 4S)-4-hydroxy-2-(((S)-(4-isopropylphenyl)(phenyl)methyl)carbamoyl)cyclopentane-1-carboxylic acid] | 0.836 µM | > 100 µM
O=C(O)[C@H]1CCC[C@H]1C(=O)N[C@@H](c1ccccc1)c1ccc(C2CC2)cn1 [Compound 12, (1S,2R)-2-(((S)-(5-cyclopropylpyridin-2-yl)(phenyl)methyl)carbamoyl)cyclopentane-1-carboxylic acid] | 1.73 µM | > 65.8 µM
CC(C)c1ccc([C@@H](NC(=O)C2CC(O)CC2C(=O)O)c2ccccc2)cc1 (single isomer, unassigned) [Compound 21, (1S or 1R,2R or 2S,4S or 4R)-4-hydroxy-2-(((S)-(4-isopropylphenyl)(phenyl)methyl)carbamoyl)cyclopentane-1-carboxylic acid] | 1.96 µM | > 100 µM
CC(C)c1ccc([C@@H](NC(=O)[C@@H]2CCC[C@@H]2C(=O)O)c2cccc(-c3cnco3)c2)nc1F [Compound 2, (1S,2R)-2-(((S)-(6-fluoro-5-isopropylpyridin-2-yl)(3-(oxazol-5-yl)phenyl)methyl)carbamoyl)cyclopentane-1-carboxylic acid] | 0.426 µM | –
CC(C)c1ccc([C@@H](NC(=O)[C@@H]2CCC[C@@H]2C(=O)O)c2cccc3c2[nH]c(=O)n3C)cc1F [Compound 7, (1S,2R)-2-(((R)-(3-fluoro-4-isopropylphenyl)(1-methyl-2-oxo-2,3-dihydro-1H-benzo[d]imidazol-4-yl)methyl)carbamoyl)cyclopentane-1-carboxylic acid] | 0.884 µM | > 10 µM
CC(C)c1ccc([C@@H](NC(=O)[C@@H]2CCC[C@@H]2C(=O)O)c2cccc(-c3ccno3)c2)nc1F [Compound 3, (1S,2R)-2-(((S)-(6-fluoro-5-isopropylpyridin-2-yl)(3-(isoxazol-5-yl)phenyl)methyl)carbamoyl)cyclopentane-1-carboxylic acid] | 0.63 µM | –
CC(C)c1ccc([C@@H](NC(=O)[C@@H]2CCC[C@@H]2C(=O)O)c2cccc3oc(=O)[nH]c23)cc1 [Compound 10, (1S,2R)-2-(((R)-(4-isopropylphenyl)(2-oxo-2,3-dihydrobenzo[d]oxazol-4-yl)methyl)carbamoyl)cyclopentane-1-carboxylic acid] | 2.93 µM | > 100 µM
CC(C)c1ccc([C@@H](NC(=O)[C@@H]2CCC[C@@H]2C(=O)O)c2ccccc2NC(=O)C2CNC2)cc1 [Compound 13, (1S,2R)-2-(((R)-(2-(azetidine-3-carboxamido)phenyl)(4-isopropylphenyl)methyl)carbamoyl)cyclopentane-1-carboxylic acid] | 2.36 µM | > 68.6 µM
CC(C)c1ccc([C@@H](NC(=O)[C@@H]2CCC[C@@H]2C(=O)O)c2ccc3cn[nH]c3c2)nc1F [Compound 5, (1S,2R)-2-(((S)-(6-fluoro-5-isopropylpyridin-2-yl)(1H-indazol-6-yl)methyl)carbamoyl)cyclopentane-1-carboxylic acid] | 0.084 µM | –
CC(C)c1ccc([C@@H](NC(=O)C2CC(NC(=O)OC(C)(C)C)CC2C(=O)O)c2ccccc2)cc1 (single isomer, unassigned) [Compound 11, (1S or 1R,2R or 2S,4R or 4S)-4-((tert-butoxycarbonyl)amino)-2-(((S)-(4-isopropylphenyl)(phenyl)methyl)carbamoyl)cyclopentane-1-carboxylic acid] | 1.94 µM | > 100 µM
O=C(O)[C@H]1CCC[C@H]1C(=O)N[C@@H](c1ccccc1)c1ccc(C2CC2)cc1 [Compound 38, (1S,2R)-2-(((S)-(4-cyclopropylphenyl)(phenyl)methyl)carbamoyl)cyclopentane-1-carboxylic acid] | 1.13 µM | –
CC(C)c1ccc([C@@H](NC(=O)[C@@H]2CCC[C@@H]2C(=O)O)c2ccn[nH]2)cc1 [Compound 32, (1S,2R)-2-(((R)-(4-isopropylphenyl)(1H-pyrazol-5-yl)methyl)carbamoyl)cyclopentane-1-carboxylic acid] | 2.39 µM | > 100 µM
CC(C)c1ccc([C@@H](NC(=O)[C@@H]2CCC[C@@H]2C(=O)O)c2cccnc2N)cc1 [Compound 29, (1S,2R)-2-(((R)-(2-aminopyridin-3-yl)(4-isopropylphenyl)methyl)carbamoyl)cyclopentane-1-carboxylic acid] | 1.52 µM | 65.6 µM
CC(C)c1ccc([C@@H](NC(=O)C2CCC(C(=O)O)C2)c2ccccc2)cc1 (single isomer, unassigned) [Compound 33, (1S or 1R,3R or 3S)-3-(((S)-(4-isopropylphenyl)(phenyl)methyl)carbamoyl)cyclopentane-1-carboxylic acid] | 3.13 µM | –
CC(C)c1ccc([C@@H](NC(=O)C2CC(F)CC2C(=O)O)c2ccccc2)cc1 (single isomer, unassigned) [Compound 25, (1S or 1R,2R or 2S,4R or 4S)-4-fluoro-2-(((S)-(4-isopropylphenyl)(phenyl)methyl)carbamoyl)cyclopentane-1-carboxylic acid] | 1.15 µM | 24.5 µM
CC1(C)CC2(CC([C@@H](NC(=O)C3CCCC3C(=O)O)c3ccccc3)C2)C1 (single isomer, unassigned) [Compound 35, (1S or 1R,2R or 2S)-2-(((R)-(6,6-dimethylspiro[3.3]heptan-2-yl)(phenyl)methyl)carbamoyl)cyclopentane-1-carboxylic acid] | 2.39 µM | –
CC1(c2ccc([C@@H](NC(=O)[C@@H]3CCC[C@@H]3C(=O)O)c3ccccc3)cc2)CC1 [Compound 14, (1S,2R)-2-(((S)-(4-(1-methylcyclopropyl)phenyl)(phenyl)methyl)carbamoyl)cyclopentane-1-carboxylic acid] | 1.01 µM | > 60.8 µM
CC(C)c1ccc([C@@H](NC(=O)[C@@H]2CCC[C@@H]2C(=O)O)c2cccc(-c3ccn[nH]3)c2)nc1F [Compound 4, (1S,2R)-2-(((S)-(3-(1H-pyrazol-5-yl)phenyl)(6-fluoro-5-isopropylpyridin-2-yl)methyl)carbamoyl)cyclopentane-1-carboxylic acid] | 0.178 µM | –
CC(C)c1ccc([C@@H](NC(=O)[C@@H]2CCC[C@@H]2C(=O)O)c2cccc(-c3ccnn3C)c2)nc1F [Compound 1, (1S,2R)-2-(((S)-(6-fluoro-5-isopropylpyridin-2-yl)(3-(1-methyl-1H-pyrazol-5-yl)phenyl)methyl)carbamoyl)cyclopentane-1-carboxylic acid] | 1.44 µM | –

Reference: patent US20260021085A1, “CYCLOALKYL CARBOXYLIC ACID DERIVATIVES AS INHIBITORS OF GLYCOGEN SYNTHASE 1 (GYS1) AND METHODS OF USE THEREOF” (Maze Therapeutics, Inc., priority 2022, published 2026)
